Measurements from patent US20240350643A1, “PROTEIN DEGRADATION AGENT” (SUZHOU KINTOR PHARMACEUTICALS, INC., priority 2021, published 2024).

What was measured:
HL60 cells = assay: Anti-proliferation ability of compounds on HL60 cells (CTG); type: cell-based, human; conditions: Homo sapiens, HL-60, 72 h, 3 days, CellTiter-Glo, read-out: HL60 cells Proliferation inhibitory activity
In short: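 HL60 cells (20000/well) exposed to serially diluted compounds (0.1% DMSO vehicle control) for 3 days. Viability read by CellTiter-Glo luminescence; IC50 fitted from inhibition rates.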

c-Myc protein = biological target: T1, c-Myc protein (Homo sapiens, UniProt P01106); assay: Ability of compounds to degrade c-Myc protein in HL60 cells (ELISA); type: cell-based; conditions: HL-60, 1 μM compound, 24 h, read-out: HL60 cells Protein degradation rate (1 μM)
T1 construct: endogenous in cells; host or cells: HL60 cells
T1 sequence (P01106 whole entry): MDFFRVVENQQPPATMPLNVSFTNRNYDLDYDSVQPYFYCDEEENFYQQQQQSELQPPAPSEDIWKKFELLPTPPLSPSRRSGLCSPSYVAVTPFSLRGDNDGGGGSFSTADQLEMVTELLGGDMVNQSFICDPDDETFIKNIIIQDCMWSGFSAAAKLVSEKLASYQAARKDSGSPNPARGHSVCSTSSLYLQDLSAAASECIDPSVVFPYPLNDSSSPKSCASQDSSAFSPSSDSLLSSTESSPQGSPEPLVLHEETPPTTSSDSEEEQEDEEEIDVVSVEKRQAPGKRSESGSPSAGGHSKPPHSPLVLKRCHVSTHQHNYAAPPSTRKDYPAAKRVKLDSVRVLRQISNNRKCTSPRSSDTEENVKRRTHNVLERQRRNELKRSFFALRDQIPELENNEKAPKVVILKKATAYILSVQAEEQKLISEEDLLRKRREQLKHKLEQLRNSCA

Structure (SMILES) | IC50 (HL60 cells) [nM] | inhibition at 1 µM (c-Myc protein) [%]
CC(C)(C(=O)NCc1ccc(CNC(=O)c2ccc3c(c2)C(=O)N(C2CCC(=O)NC2=O)C3=O)cc1)c1cccc2ccccc12 (stereo not shown) [A31] | 1360 | 60 to 90
N#CCCN(CCc1cccc2ccccc12)Cc1ccc(CNC(=O)c2ccc3c(c2)C(=O)N(C2CCC(=O)NC2=O)C3=O)cc1 (stereo not shown) [A92] | 440 ± 120 | 60 to 90
CS(=O)(=O)N(CCc1cccc2ccccc12)Cc1ccc(CNC(=O)c2ccc3c(c2)C(=O)N(C2CCC(=O)NC2=O)C3=O)cc1 (stereo not shown) [A77] | 73.4 | 60 to 90
O=C(Cc1cccc2ccccc12)NCc1ccc(CNC(=O)c2ccc3c(c2)C(=O)N(C2CCC(=O)NC2=O)C3=O)nc1 (stereo not shown) [A124] | 1100 ± 295 | 10 to 30
O=C(Cc1cccc2ccccc12)NCc1ccc(CNC(=O)c2ccc3c(c2)C(=O)N(C2CCC(=O)NC2=O)C3=O)cn1 (stereo not shown) [A128] | 2140 ± 788 | 10 to 30
COc1cccc(CC(=O)NCc2ccc(CNC(=O)c3ccc4c(c3)C(=O)N(C3CCC(=O)NC3=O)C4=O)cc2)c1OC (stereo not shown) [A56] | 666 ± 60.2 | 60 to 90
O=C(Cc1ccc2ccccc2c1)NCCCCCCNC(=O)c1ccc2c(c1)C(=O)N(C1CCC(=O)NC1=O)C2=O (stereo not shown) [A9] | 570 ± 38 | 30 to 60
O=C(Cn1c2ccccc2c2cccnc21)NCc1cnc(CNC(=O)c2ccc3c(c2)C(=O)N(C2CCC(=O)NC2=O)C3=O)nc1 (stereo not shown) [A131] | 112 ± 16.5 | 60 to 90
O=C(Cc1ccccc1C(F)(F)F)NCc1ccc(CNC(=O)c2ccc3c(c2)C(=O)N(C2CCC(=O)NC2=O)C3=O)cc1 (stereo not shown) [A67] | 1070 ± 617 | 60 to 90
O=C(Cn1c2ccccc2c2cccnc21)NCc1cnc(CNC(=O)c2ccc3c(c2)C(=O)N(C2CCC(=O)NC2=O)C3=O)s1 (stereo not shown) [A134] | 334 ± 83.5 | 60 to 90
O=C(Cc1ccc(Cl)cc1)NCc1ccc(CNC(=O)c2ccc3c(c2)C(=O)N(C2CCC(=O)NC2=O)C3=O)cc1 (stereo not shown) [A59] | 173 ± 61.3 | 60 to 90
O=C(Cn1c2ccccc2c2cccnc21)NCCCCCCCCOc1ccc2c(c1)C(=O)N(C1CCC(=O)NC1=O)C2=O (stereo not shown) [A18] | 1220 ± 217 | 30 to 60
O=C(Cc1cccc2ccccc12)NCCCCCCCCCc1ccc2c(c1)C(=O)N(C1CCC(=O)NC1=O)C2=O (stereo not shown) [A19] | 585 ± 79.8 | 60 to 90
O=C(Cn1c2ccccc2c2ccccc21)NCCCCCCCCNC(=O)c1ccc2c(c1)C(=O)N(C1CCC(=O)NC1=O)C2=O (stereo not shown) [A14] | 226 ± 72 | 30 to 60
O=C(Cc1ccccc1)NCc1ccc(CNC(=O)c2ccc3c(c2)C(=O)N(C2CCC(=O)NC2=O)C3=O)cc1 (stereo not shown) [A53] | 1450 ± 280 | 60 to 90
CC(C)(C)OC(=O)NC[C@H]1CC[C@H](CNc2ccc3c(c2)C(=O)N(C2CCC(=O)NC2=O)C3=O)CC1 (stereo partly shown) [A28] | 5060 ± 137 | 60 to 90
Cc1ccccc1CC(=O)NCc1ccc(CNC(=O)c2ccc3c(c2)C(=O)N(C2CCC(=O)NC2=O)C3=O)cc1 (stereo not shown) [A68] | 1000 ± 480 | 60 to 90
O=C(Cc1cccc(F)c1)NCc1ccc(CNC(=O)c2ccc3c(c2)C(=O)N(C2CCC(=O)NC2=O)C3=O)cc1 (stereo not shown) [A64] | 2020 | 60 to 90

Stronger by IC50 (HL60 cells), values ahead:

IC50 (HL60 cells) [nM] | inhibition at 1 µM (c-Myc protein) [%] | Structure (SMILES)
3.4 | 60 to 90 | O=C(Cc1cccc2ccccc12)NCc1ccc(CNC(=O)c2ccc3c(c2)C(=O)N(C2CCC(=O)NC2=O)C3=O)cc1F (stereo not shown) [A107]
6.1 ± 0.9 | 60 to 90 | O=C1CCC(N2C(=O)c3ccc(C(=O)NCc4ccc(C5(NC(=O)Cn6c7ccccc7c7cccnc76)CC5)cc4)cc3C2=O)C(=O)N1 (stereo not shown) [A142]
0.6 ± 0.1 | 30 to 60 | NCC(=O)OCN1C(=O)CCC(N2Cc3cc(C(=O)NCc4ccc(CNC(=O)Cn5c6ccccc6c6cccnc65)cc4)ccc3C2=O)C1=O (stereo not shown) [A227]
55.4 ± 6.7 | 30 to 60 | O=C(Cn1c2ccccc2c2ccccc21)NC[C@H]1CC[C@H](CNC(=O)c2ccc3c(c2)C(=O)N(C2CCC(=O)NC2=O)C3=O)CC1 (stereo partly shown) [A23]
1.1 ± 0.8 | 60 to 90 | CN(CCn1c2ccccc2c2cccnc21)Cc1ccc(CNCc2ccc3c(c2)C(=O)N(C2CCC(=O)NC2=O)C3=O)cc1 (stereo not shown) [A182]
1.3 ± 0.3 | 60 to 90 | O=C1CCC(N2Cc3cc(C(=O)NCc4ccc(C5(NC(=O)Cc6cccc7ccccc67)CC5)cc4F)ccc3C2=O)C(=O)N1 (stereo not shown) [A163]
45.6 ± 3 | 60 to 90 | CN(Cc1ccc(CNC(=O)c2ccc3c(c2)C(=O)N(C2CCC(=O)NC2=O)C3=O)cc1)C(=O)Cn1c2ccccc2c2cccnc21 (stereo not shown) [A72]
< 3 | 60 to 90 | COCCN(CCc1cccc2ccccc12)Cc1ccc(CNC(=O)c2ccc3c(c2)C(=O)N(C2CCC(=O)NC2=O)C3=O)cc1 (stereo not shown) [A90]
0.5 ± 0.3 | 60 to 90 | O=C(Cn1c2ccccc2c2cccnc21)NCc1ccc(CNC(=O)c2ccc3c(c2)CN(C2CCC(=O)NC2=O)C3=O)cc1 (stereo not shown) [A153]
2.1 ± 0.6 | 60 to 90 | O=C(Cn1c2ccccc2c2cccnc21)NCc1ccc(CNCc2ccc3c(c2)C(=O)N(C2CCC(=O)NC2=O)C3=O)cc1 (stereo not shown) [A176]
18 ± 11.5 | 60 to 90 | O=C(Cn1c2ccccc2c2cccnc21)NCc1ccc(CNC(=O)c2ccc3c(c2)C(=O)N(C2CCC(=O)NC2=O)C3=O)cc1 (stereo not shown) [A30]
3 ± 0.1 | 60 to 90 | COc1cc(CNC(=O)Cn2c3ccccc3c3cccnc32)ccc1CNC(=O)c1ccc2c(c1)C(=O)N(C1CCC(=O)NC1=O)C2=O (stereo not shown) [A112]
59.3 ± 5.7 | 60 to 90 | O=C1CCC(N2C(=O)c3ccc(C(=O)NCc4ccc(CNCCc5cccc6ccccc56)cc4)cc3C2=O)C(=O)N1 (stereo not shown) [A73]
5.5 ± 4.2 | 60 to 90 | CN(CCc1cccc2ccccc12)Cc1ccc(CNC(=O)c2ccc3c(c2)C(=O)N(C2CCC(=O)NC2=O)C3=O)cc1F (stereo not shown) [A109]
9.2 ± 0.5 | 60 to 90 | O=C(Cc1cccc2cccnc12)NCc1ccc(CNCc2ccc3c(c2)C(=O)N(C2CCC(=O)NC2=O)C3=O)cc1 (stereo not shown) [A187]
1.7 ± 0.3 | 60 to 90 | O=C(Cn1c2ccccc2c2cccnc21)NCc1ccc(CC(=O)Nc2ccc3c(c2)C(=O)N(C2CCC(=O)NC2=O)C3=O)cc1 (stereo not shown) [A166]
< 3 | 60 to 90 | O=C(Cc1nccc2ccccc12)NCc1ccc(CC(=O)Nc2ccc3c(c2)CN(C2CCC(=O)NC2=O)C3=O)cc1 (stereo not shown) [A172]
26.1 ± 2 | 60 to 90 | O=C(Cn1c2ccccc2c2cccnc21)NCc1ccc(CNC(=O)c2ccc3c(c2)C(=O)N(C2CCC(=O)NC2=O)C3=O)nc1 (stereo not shown) [A125]
9.1 ± 0.3 | 60 to 90 | O=C(Cc1nccc2ccccc12)NCc1ccc(CNC(=O)c2ccc3c(c2)C(=O)N(C2CCC(=O)NC2=O)C3=O)cc1 (stereo not shown) [A33]
4.4 ± 3.2 | 60 to 90 | COc1cc(CN(C)CCc2cccc3ccccc23)ccc1CNC(=O)c1ccc2c(c1)C(=O)N(C1CCC(=O)NC1=O)C2=O (stereo not shown) [A113]
30.1 ± 21.1 | 60 to 90 | O=C(Cc1cccc2ccccc12)NCc1ccc(CNC(=O)c2ccc3c(c2)C(=O)N(C2CCC(=O)NC2=O)C3=O)cc1 (stereo not shown) [A29]
< 3 | 60 to 90 | CN(CCn1c2ccccc2c2cccnc21)Cc1ccc(CNC(=O)c2ccc3c(c2)CN(C2CCC(=O)NC2=O)C3=O)cc1 (stereo not shown) [A156]
21.3 ± 10.9 | 60 to 90 | CC(C)N(CCc1cccc2ccccc12)Cc1ccc(CNC(=O)c2ccc3c(c2)C(=O)N(C2CCC(=O)NC2=O)C3=O)cc1 (stereo not shown) [A85]
